Numbers after ± are expanded uncertainties.
Conditions: 298.15 K, Liquid, Vibrating tube method

mass density (7640 kPa): 844 ± 0.7 kg/m3 | mass density (10000 kPa): 845.6 ± 0.7 kg/m3
Structure (SMILES): C=C(C)C1CC=C(C)CC1 (configuration not stated) [1-methyl-4-(1-methylethenyl)cyclohexene]

From the NIST ThermoML archive (doi:10.1016/j.fluid.2006.05.027)
